Data on two molecules can be found in patent US9617264B2, “2,7-diazaspiro[3.5]nonane compounds” (REMYND NV, priority 2014, dated 2017).

One experiment has as its system INS-1E cells. Put plainly: Cytokine-induced apoptosis (caspase-3/7 activation, Caspase-Glo 3/7) in INS-1E rat insulinoma cells. The format is cell-based. The settings on record: cytokine mix (IFN-γ, IL-1, TNF-α), 24 hours, caspase 3/7 activity, read-out: CYT EC50. An excerpt:
The INS-1E cell line, a rat insulinoma cell line, has been characterized extensively. INS-1E cells respond to glucose by secreting insulin and, unlike most other immortalized n-cell lines, they do this in a consistent manner over time. The cells are sensitive to hyperglycemia-, free fatty acid (FFA)-, and cytokine-induced stress. Prolonged stress ultimately leads to induction of apoptotic pathways and, if stress is not counter-acted, to apoptosis. Caspase-3 and -7 play a central role downstream where various apoptotic pathways merge. As such, activation (i.e. cleavage) of these caspases forms a relevant primary read-out to evaluate protective activity of compounds against stress-induced apoptosis.
To evaluate the efficacy of different compounds to prevent induction of apoptosis, an in vitro screen was developed in which INS-1E cells were exposed to a cytokine mix (IFN-γ, 5 ng/ml; IL-1, 20 pg/ml; TNF-α, 0.25 ng/ml). The degree of induction of apoptosis was evaluated using a substrate for cleaved caspase-3 and -7, i.e. a proluminescent caspase-3/7 DEVD aminoluciferin substrate with a thermostable luciferase (Caspase-Glo® 3/7 assay; Promega, cat. G8092).
On day 0, INS-1E cells were plated in a white-walled 96-well microplate (Greiner, cat. 655098) at 20,000 cells per well in 100 μl complete medium (RPMI containing 11 mM glucose supplemented with 5% FCS, 100 IU/ml penicillin, 100 μg/ml streptomycin, 10 mM HEPES, 1 mM Sodium Pyruvate and 50 μM 2-Mercapto-ethanol). On day 2, 100 μl medium containing cytokines and compound dissolved in DMSO was added to the cells. Wells without cytokines containing DMSO and wells with cytokines and DMSO were included to evaluate the degree of caspase 3/7 activation by the cytokine mix. After 24 hours exposure to cytokines and/or compound, Caspase-Glo® 3/7 reagent was added to the cells and caspase activity was determined by measuring luminescence.
To evaluate compound efficacy, the “toxicity window” was calculated by subtracting caspase activity of wells without stressor from activity of wells with stressor but without compound. The amount of caspase activity in the latter wells was normalized to 1 and used as reference. Subsequently, caspase activity in the wells with stressor and varying concentrations of compound was calculated relative to the wells without compound. Plotting caspase activity vs the log 10 of the concentration of compound permitted calculation of the EC50 values for the compounds which typically lied between 0.0001 and 10 μM. Compounds with an EC50<10 μM were considered active.

Another experiment concerns M17_3SYN cells. Put plainly: Paraquat-induced cytotoxicity (LDH) in α-synuclein over-expressing M17_3SYN neuroblastoma cells. The format is cell-based. The settings on record: Homo sapiens, Neuroblastoma cell, 48 h, 6 mM Paraquat, 2 days, LDH toxicity inhibition, read-out: SYN EC50. Summed up: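 Human BE-M17 neuroblastoma cells stably overexpressing wild-type human α-synuclein were challenged with 6 mM paraquat (final) for 2 days at 37° C in the presence of graded compound concentrations. Cytotoxicity was measured as released LDH relative to total LDH, and EC50 was derived from dose-inhibition curves.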

The test system of another experiment is db/db mice. Put plainly: In vivo evaluation in db/db mice (type 2 diabetes model). The text has this: For in vivo evaluation of compound efficacy, male BKS.Cg-+Leprdb/Leprdb/OlaHsd mice (db/db mice—Harlan) were used. The db/db phenotype results from a mutation in the leptin receptor gene, leading to a splice variant (Chen, Charlat et al. 1996; Lee, Proenca et al. 1996). The development of type 2 diabetes in db/db mice is associated with reduced insulin levels due to progressive β-cell failure following an initial period of hypersecretion of insulin. Since these mice develop type 2 diabetes in a manner related to pathology development in humans, and the model is accepted as in vivo model for evaluation of novel anti-diabetic treatments by the Food and Drug Administration (FDA, US), it is a highly relevant model for testing candidate drugs for efficacy.
Compounds were administered intraperitoneal (IP) or oral (PO) at a dose of maximally 50 mg/kg. Mice were subjected to metabolic analysis weekly or bi-weekly. These tests included but were not limited to determination of fasting (5 hrs) and non-fasting blood glucose levels, plasma insulin levels, % glycated hemoglobin (HbA1c) levels, glucose tolerance test and insulin sensitivity test.
Treatment with Cmpd045 at 15 mg/kg PO decreased body weight (FIG. 1A).

For `COc1ccc(S(=O)(=O)N2CC3(CCN(S(=O)(=O)c4ccc(OC(F)F)cc4)CC3)C2)cc1` [Cmpd045, 7-((4-(Difluoromethoxy)phenyl)sulfonyl)-2-((4-methoxyphenyl)sulfonyl)-2,7-diazaspiro[3.5]nonane], the figures for the EC50 with INS-1E cells and in the experiment on M17_3SYN cells were 12 nM and 2 nM, respectively. Also, the body weight result with db/db mice (15 mg/kg PO, non-fasted body weight, FIG. 1A) was “decreased”. In addition, the “Fasted blood glucose levels” value in the experiment on db/db mice (fasted, FIG. 1B) is given as “significantly lower”. Further, the “% HbA1c levels” value in the experiment with db/db mice (treated for 4 weeks, FIG. 1C) is on record as “reduced”.
In the case of `COc1ccc(S(=O)(=O)N2CCC3(CC2)CN(C(=O)C(C)(C)c2ccccc2OC)C3)cc1` [Cmpd024, 2-(2-Methoxyphenyl)-1-(7-((4-methoxyphenyl)sulfonyl)-2,7-diazaspiro[3.5]nonan-2-yl)-2-methylpropan-1-one], the EC50 was 63 nM in the experiment on INS-1E cells and 81.5 nM in the experiment with M17_3SYN cells.

For orientation: EC50 means the concentration that produces a half-maximal response.
